Reference: ChEMBL document CHEMBL4308841, “Synthesis, in vitro antiproliferative activity, and kinase inhibitory effects of pyrazole-containing diarylureas and diarylamides” (Eur J Med Chem, 2018)

How the values were obtained:
A549 [1] = test: Growth inhibition of human A549/ATCC cells assessed as cell growth at 0.01 uM incubated for 48 hrs by sulforhodamine B assay relative to control; assay type: functional; conditions: A549, 48 h, read-out: Activity
LOX IMVI = test: Growth inhibition of human LOXIMVI cells assessed as cell growth at 0.01 uM incubated for 48 hrs by sulforhodamine B assay relative to control; assay type: functional; conditions: read-out: Activity
MDA-MB-468 = test: Growth inhibition of human MDA-MB-468 cells assessed as cell growth at 0.1 uM incubated for 48 hrs by sulforhodamine B assay relative to control; assay type: functional; conditions: MDA-MB-468, 48 h, read-out: Activity
BT-549 = test: Growth inhibition of human BT549 cells incubated for 48 hrs by sulforhodamine B assay; assay type: functional, cell-based; conditions: BT-549, 48 h
HT-29 = test: Growth inhibition of human HT-29 cells assessed as cell growth at 0.01 uM incubated for 48 hrs by sulforhodamine B assay relative to control; assay type: functional; conditions: HT-29, 48 h, read-out: Activity
PC-3 [2] = test: Growth inhibition of human PC3 cells assessed as cell growth at 0.1 uM incubated for 48 hrs by sulforhodamine B assay relative to control; assay type: functional; conditions: PC-3, 48 h, read-out: Activity
SR [3] = test: Growth inhibition of human SR cells assessed as cell growth at 1 uM incubated for 48 hrs by sulforhodamine B assay relative to control; assay type: functional; conditions: read-out: Activity
PC-3 [4] = test: Growth inhibition of human PC3 cells assessed as cell growth at 0.01 uM incubated for 48 hrs by sulforhodamine B assay relative to control; assay type: functional; conditions: PC-3, 48 h, read-out: Activity
UACC-257 = test: Growth inhibition of human UACC257 cells assessed as cell growth at 1 uM incubated for 48 hrs by sulforhodamine B assay relative to control; assay type: functional; conditions: UACC-257, 48 h, read-out: Activity
OVCAR-5 = test: Growth inhibition of human OVCAR5 cells incubated for 48 hrs by sulforhodamine B assay; assay type: functional, cell-based; conditions: OVCAR-5, 48 h
NCI-H322M = test: Growth inhibition of human NCI-H322M cells assessed as cell growth at 1 uM incubated for 48 hrs by sulforhodamine B assay relative to control; assay type: functional; conditions: read-out: Activity
HL-60(TB) = test: Growth inhibition of human HL-60(TB) cells assessed as cell growth at 0.01 uM incubated for 48 hrs by sulforhodamine B assay relative to control; assay type: functional; conditions: HL-60, 48 h, read-out: Activity
HCC 2998 = test: Growth inhibition of human HCC2998 cells incubated for 48 hrs by sulforhodamine B assay; assay type: functional, cell-based; conditions: HCC 2998, 48 h
SK-MEL-28 = test: Growth inhibition of human SK-MEL-28 cells assessed as cell growth at 100 uM incubated for 48 hrs by sulforhodamine B assay relative to control; assay type: functional; conditions: SK-MEL-28, 48 h, read-out: Activity
NCI-H23 = test: Growth inhibition of human NCI-H23 cells incubated for 48 hrs by sulforhodamine B assay; assay type: functional, cell-based; conditions: NCI-H23, 48 h
SR [5] = test: Growth inhibition of human SR cells assessed as cell growth at 0.01 uM incubated for 48 hrs by sulforhodamine B assay relative to control; assay type: functional; conditions: read-out: Activity
MDA-MB-435 = test: Growth inhibition of human MDA-MB-435 cells assessed as cell growth at 100 uM incubated for 48 hrs by sulforhodamine B assay relative to control; assay type: functional; conditions: MDA-MB-435, 48 h, read-out: Activity
U-251 = test: Growth inhibition of human U251 cells assessed as cell growth at 0.1 uM incubated for 48 hrs by sulforhodamine B assay relative to control; assay type: functional; conditions: U-251, 48 h, read-out: Activity
SK-MEL-5 [6] = test: Growth inhibition of human SK-MEL-5 cells assessed as cell growth at 0.1 uM incubated for 48 hrs by sulforhodamine B assay relative to control; assay type: functional; conditions: SK-MEL-5, 48 h, read-out: Activity
UACC-62 = test: Growth inhibition of human UACC62 cells incubated for 48 hrs by sulforhodamine B assay; assay type: functional, cell-based; conditions: UACC-62, 48 h
SN12C = test: Growth inhibition of human SN12C cells assessed as cell growth at 0.01 uM incubated for 48 hrs by sulforhodamine B assay relative to control; assay type: functional; conditions: read-out: Activity
SK-MEL-2 [7] = test: Growth inhibition of human SK-MEL-2 cells assessed as cell growth at 0.1 uM incubated for 48 hrs by sulforhodamine B assay relative to control; assay type: functional; conditions: SK-MEL-2, 48 h, read-out: Activity
IGROV-1 = test: Growth inhibition of human IGROV1 cells assessed as cell growth at 1 uM incubated for 48 hrs by sulforhodamine B assay relative to control; assay type: functional; conditions: IGROV-1, 48 h, read-out: Activity
NCI-H522 = test: Growth inhibition of human NCI-H522 cells assessed as cell growth at 1 uM incubated for 48 hrs by sulforhodamine B assay relative to control; assay type: functional; conditions: NCI-H522, 48 h, read-out: Activity
786-0 = test: Growth inhibition of human 786-0 cells assessed as cell growth at 100 uM incubated for 48 hrs by sulforhodamine B assay relative to control; assay type: functional; conditions: 786-0, 48 h, read-out: Activity
SK-MEL-5 [8] = test: Growth inhibition of human SK-MEL-5 cells assessed as cell growth at 0.01 uM incubated for 48 hrs by sulforhodamine B assay relative to control; assay type: functional; conditions: SK-MEL-5, 48 h, read-out: Activity
MCF7 = test: Growth inhibition of human MCF7 cells assessed as cell growth at 100 uM incubated for 48 hrs by sulforhodamine B assay relative to control; assay type: functional; conditions: MCF7, 48 h, read-out: Activity
HOP-62 = test: Growth inhibition of human HOP62 cells assessed as cell growth at 100 uM incubated for 48 hrs by sulforhodamine B assay relative to control; assay type: functional; conditions: HOP-62, 48 h, read-out: Activity
PC-3 [9] = test: Growth inhibition of human PC3 cells assessed as cell growth at 1 uM incubated for 48 hrs by sulforhodamine B assay relative to control; assay type: functional; conditions: PC-3, 48 h, read-out: Activity
SK-MEL-2 [10] = test: Growth inhibition of human SK-MEL-2 cells assessed as cell growth at 100 uM incubated for 48 hrs by sulforhodamine B assay relative to control; assay type: functional; conditions: SK-MEL-2, 48 h, read-out: Activity
A549 [11] = test: Growth inhibition of human A549/ATCC cells assessed as cell growth at 1 uM incubated for 48 hrs by sulforhodamine B assay relative to control; assay type: functional; conditions: A549, 48 h, read-out: Activity
[12] = read-out: LC50 (the source's name)
[13] = read-out: pLC50 (the source's name) (converted)

## COc1cc(Cl)cc(-c2nn(-c3cccc(NC(=O)Nc4ccc(Cl)c(C(F)(F)F)c4)c3)cc2-c2ccncc2)c1
A549 [1]
  growth at 0.01 µM: 97%
LOX IMVI
  growth at 0.01 µM: 98%
MDA-MB-468
  growth at 0.1 µM: 91%
BT-549; read-out: GI50
  GI50: 2.38 µM
BT-549; [12]
  CC50: 25.8 µM
BT-549; read-out: TGI
  TGI: 65.5 µM
BT-549; read-out: pGI50 (converted)
  GI50: 2.4 µM
BT-549; [13]
  CC50: 28.8 µM
BT-549; read-out: pTGI (converted)
  TGI: 6.61 µM
HT-29
  growth at 0.01 µM: 101%
PC-3 [2]
  growth at 0.1 µM: 91%
SR [3]
  growth at 1 µM: 53%
PC-3 [4]
  growth at 0.01 µM: 94%
UACC-257
  growth at 1 µM: 83%
OVCAR-5; read-out: GI50
  GI50: 2.13 µM
OVCAR-5; [12]
  CC50: 3.01 µM
OVCAR-5; read-out: TGI
  TGI: 71.5 µM
OVCAR-5; read-out: pGI50 (converted)
  GI50: 2.14 µM
OVCAR-5; [13]
  CC50: 30.2 µM
OVCAR-5; read-out: pTGI (converted)
  TGI: 28.8 µM
NCI-H322M
  growth at 1 µM: 89%
HL-60(TB)
  growth at 0.01 µM: 96%
HCC 2998; read-out: GI50
  GI50: 2.91 µM
HCC 2998; [12]
  CC50: 4.41 µM
HCC 2998; read-out: TGI
  TGI: 90.2 µM
HCC 2998; read-out: pGI50 (converted)
  GI50: 2.88 µM
HCC 2998; [13]
  CC50: 43.7 µM
HCC 2998; read-out: pTGI (converted)
  TGI: 9.12 µM
SK-MEL-28
  growth at 100 µM: -88%
NCI-H23; read-out: GI50
  GI50: 1.36 µM
NCI-H23; read-out: LC50
  LC50: > 100 µM
NCI-H23; read-out: TGI
  TGI: 62.3 µM
NCI-H23; read-out: pGI50 (converted)
  GI50: 1.35 µM
NCI-H23; read-out: pLC50 (converted)
  LC50: > 100 µM
NCI-H23; read-out: pTGI (converted)
  TGI: 6.17 µM
SR [5]
  growth at 0.01 µM: 95%
MDA-MB-435
  growth at 100 µM: -40%
U-251
  growth at 0.1 µM: 92%
SK-MEL-5 [6]
  growth at 0.1 µM: 98%
UACC-62
  IC50: 1.27 µM
UACC-62; read-out: GI50
  GI50: 1.27 µM
UACC-62; [12]
  CC50: 9.51 µM
UACC-62; read-out: TGI
  TGI: 35.4 µM
UACC-62; read-out: pGI50 (converted)
  GI50: 1.29 µM
UACC-62; [13]
  CC50: 9.77 µM
UACC-62; read-out: pTGI (converted)
  TGI: 4.9 µM
SN12C
  growth at 0.01 µM: 98%
SK-MEL-2 [7]
  growth at 0.1 µM: 52%
IGROV-1
  growth at 1 µM: 87%
NCI-H522
  growth at 1 µM: 34%
786-0
  growth at 100 µM: -81%
SK-MEL-5 [8]
  growth at 0.01 µM: 96%
MCF7
  growth at 100 µM: -8%
HOP-62
  growth at 100 µM: -48%
PC-3 [9]
  growth at 1 µM: 14%
SK-MEL-2 [10]
  growth at 100 µM: -85%
A549 [11]
  growth at 1 µM: 40%
